“Also recorded” adds a separate entry of the source.
Columns and labels:
[1] = test system: WT mice; conditions: daily s.c. injection for 4.5 months
Description: Panel C) IHC anti-Lamp-on brain sagittal sections derived from the four experimental groups of mice (WT saline-injected, WT CLR01-injected, MPS-IIIA-saline injected and MPS-IIIA CLR01-injected). Images from cerebral cortex shown. Lamp 1 immuno-reactivity quantified in 10 different fields from the cortical regions for each group. Three mice for each experimental group. ***p<0.001 vs WT; ###P<0.001 vs MPS-IIIA+saline, One-way ANOVA analysis with Bonferroni's multiple comparison test. Panels D and E) TEM analysis to quantify the number/size of lysosomes in the four experimental group of mice. Three mice for each experiment group. Representative TEM images were shown on the left panel. *, **, *** p<0.05, 0.01, 0.001 vs WT; ##, ###, P<0.01, 0.001 vs MPS-IIIA+saline, One-way ANOVA analysis with Bonferroni's multiple comparison test.

[2] = test system: WT mice; test: IHC anti-LAMP1 on brain sections of WT mice; type: in vivo, mouse; conditions: daily s.c. injection for 4.5 months
Description: (§1) FIG. 8. […] Images from cerebral cortex shown. […] Three mice for each experiment group.
(§2) For paraffin embedding, mice brain were fixed in 4% paraformaldehyde (PFA) overnight at 4° C., then mice brain were dehydrated in a graded series of ethanol, cleared with xylene, and infiltrated with paraffin. Paraffin-embedded blocks were cut on a microtome in 6-μm sagittal sections. Immunohistochemistry experiments were […] performed using the Universal Vectastain Elite ABC HRP Kit (PK6200, Vector Laboratories). For all immunostainings were used sagittal sections, rinsed in PBS1×-Triton 0.1% and treated with 1% H2O2 for 30 min to quench endogenous peroxidase activity. At this point the sections were exposed at PBS or at Proteinase K digestion (50 μg/ml) for 2 minutes at 37° C. to detect protease resistant structures. After this point the sections were blocked for 1 hour in PBS1×-TritonX-100 0.1%-2% Horse Serum and then incubated with specific antibodies overnight at […], followed by incubation in biotinylated universal antibody (Vector Laboratories) for 90 minutes at room temperature and in ABC reagent (Vector Laboratories) for 45 minutes at room temperature. Sections were dehydrated and then mounted with Leica CV ULTRA (Leica micro systems). Visualization was performed using 3,3-diaminobenzidine tetrahydrochloride (DAB Vector Laboratories). […]

[3] = test system: MPS-IIIA mice; test: TEM analysis of number/size of lysosomes; type: in vivo, mouse
Text: as §1

[4] = test system: mouse models of synucleinopathies and Alzheimer's disease; conditions: cited from earlier work
[5] = test system: MPS-IIIA mice; test: GFAP and IBA1 staining of neuro-inflammation in brain; type: in vivo, mouse
[6] = test system: MPS-IIIA mice; test: Thioflavin S staining of amyloid deposits in brain sections; type: in vivo, mouse
Text: CLR01 was produced in the facility of Professor Gal Bitan (Associate Professor of Neurology, Department of Neurology, University of California, UCLA). […] […] CLR01 dosage has been chosen on the basis of safety and pharmacological characterization of CLR01 in mice (Attar et al. (2014) BMC Parmacol. & Toxicol 15: 23).
After euthanization, mouse brain was collected from each experimental group and perfused with phosphate-buffered saline (PBS pH 7,4) to completely clear blood from tissue. The brains were divided in two equal parts: half of each was frozen in dry ice and used for biochemical analysis. The other halves were fixed in 4% (w/v) paraformaldehyde in PBS and embedded in Optimal cutting temperature compound (OCT compound) or paraffin.
For thioflavin S histochemistry were used cryosections (12 μm), then sections were incubated in 0.1% thioflavin S for 10 min. Slides were immersed to 80% ethanol solution for 5 min, and mounted using FLUORSAVE™ reagent. Positive staining was observed using a Leica DM5500 scan.
The inventors therefore tested whether CLR01 (FIG. 4, panel A), was effective in targeting and destroying amyloid aggregation in MPS IIIA mice. […] Both treatments ended at 7 months of age, when the neuropathological phenotype becomes evident in MPS-IIIA mice (Lau et al. (2008) Behav. Brain Res. 191: 130-136; Sambri et al. (2016) EMBO Mol. Med. e201606965; Sorrentino et al. (2013) EMBO Mol. Med. 5: 675-690; Wilkinson et al. (2012) PloS one, 7: e35787). The two different treatment regimens allowed evaluation of the potential therapeutic effect of CLR01 resulting from either prevention or disassembly of amyloid aggregation.
The potential therapeutic efficacy of CLR01 in MPS-IIIA was further tested by treating MPS-IIIA mice at 4.5 months of age (before massive amyloid aggregation takes place) with daily sub-cutaneous injection of CLR01 over a period of 4.5 months.

[7] = test system: WT mice; test: Lysosomal autophagic axis in WT mice; type: in vivo, mouse; conditions: WT mice upon treatment
Text: Therefore, the present data support a model in which progressive amyloid build-up into lysosomes impairs autophagic flux. Mechanisms underlying such effect involve the negative impact of amyloids on autophagosome clearance through the prevention of lysosome encountering. […] This might be a consequence of the relief of the autophagy block and/or might be a result of a more specific effect of CLR01 on lysosomal-mediated signaling pathways inducing ALP, signaling that may be impaired by amyloid deposition in MPS-IIIA.

[8] = test system: MPS-IIIA mice; test: IHC anti-LAMP1 on brain sections; type: in vivo, mouse; conditions: daily s.c. injection for 4.5 months
Description: as §1, §2

[9] = systemic administration; cited from earlier work
[10] = test system: MPS-IIIA mice; test: IHC anti-UbK63 on brain sections; type: in vivo, mouse; conditions: CLR01-treated MPS-IIIA brain vs control MPS-IIIA brain
Text: (§3) FIG. 9. Panels A and B, show anti-LC3 immunofluorescence on brain sagittal sections from the four experimental groups of mice. The number of LC3-positive dots (either total or large dots) were quantified in 15 different fields from the cortical regions for each group. Three mice for each experimental group. […] Panel C) Immunofluorescence analysis of colocalization in MPS-IIIA mice brain sagittal sections between LC3 (green) and Lamp1 (red), LC3 (green) and Neurofilament (red). […] Images from cerebral cortex shown.
For paraffin embedding, mice brain were fixed in 4% paraformaldehyde (PFA) overnight at 4° C., then mice brain were dehydrated in a graded series of ethanol, cleared with xylene, and infiltrated with paraffin. Paraffin-embedded blocks were cut on a microtome in 6-μm sagittal sections. Immunohistochemistry experiments were […] performed using the Universal Vectastain Elite ABC HRP Kit (PK6200, Vector Laboratories). For all immunostainings were used sagittal sections, rinsed in PBS1×-Triton 0.1% and treated with 1% H2O2 for 30 min to quench endogenous peroxidase activity. […]
(§4) To evaluate whether the normalization of the lysosomal compartment mediated by amyloid deposition inhibition was also associated to a functional recovery of lysosomes, the ALP was analyzed in MPS-IIIA mouse brain upon CLR01 treatment. […]

[11] = test system: WT mice; test: Anti-LC3 immunofluorescence on brain sections of WT mice; type: in vivo, mouse; conditions: CLR01-treated WT mice
Text: as §3
(§5) Medial sagittal sections of frozen brain tissue were cut on a cryostat at either 12 or 40 μm of thickness, permeabilized (PBS, 0.2% Tween[…]20, and 10% fetal bovine serum), and stained with appropriate primary and secondary antibodies overnight at […] Sections were analyzed by Confocal microscope Zeiss LSM 710 using either 63× or 40× objectives. Stained sections were mounted with Vectashield (Vector Laboratories, CA, USA).
as §4

[12] = test system: MPS-IIIA mice; test: Anti-LC3 immunofluorescence on brain sections; type: in vivo, mouse
Text: FIG. 9. Panels A and B, show anti-LC3 immunofluorescence on brain sagittal sections from the four experimental groups of mice. The number of LC3-positive dots (either total or large dots) were quantified in 15 different fields from the cortical regions for each group. Three mice for each experimental group. […] Panel C) Immunofluorescence analysis of colocalization in MPS-IIIA mice brain sagittal sections between LC3 (green) and Lamp1 (red), LC3 (green) and Neurofilament (red). […] Panel E) Immunohistochemistry analysis of anti-Ubiquitin K63 signal on brain sagittal sections derived from the four experimental groups of mice. Images from cerebral cortex shown. UbK63 immuno-reactivity quantified in 10 different fields from the cortical regions from each group.
as §5
In healthy neurons autophagosomes are efficiently cleared upon axonal retrograde transport and lysosomal encountering and, therefore, are rarely found in neurites or cell bodies unless lysosomal-dependent autophagosome clearance is disrupted (Boland et al. (2008) J. Neurosci. 28: 6926-6937; Maday et al. (2012) J. Cell Biol. 196: 407-417; Lie & Nixon (2019) Neurobiol. Dis. 122: 94-105).

[13] = test system: WT mice; conditions: daily s.c. injection for 4.5 months; remark: listed apart in the source
[14] = test system: MPS-IIIA mice; test: Contextual fear conditioning test; type: in vivo, mouse; conditions: daily s.c. injection for 4.5 months, 9 months of age
Text: FIG. 7. […] Panel B) TEM analysis of synaptic vesicles number. […] Panel C) Contextual fear condition task.

[15] = test system: MPS-IIIA mice; conditions: mouse, in vivo, sc, 1 mg/kg/day
[16] = test system: MPS-IIIA mice; test: Western blot of LC3-II and p62 on brain lysates; type: in vivo, mouse
[17] = test system: MPS-IIIA mice; conditions: MPS-IIIA mouse brain, daily s.c. injection for 4.5 months, 9 months of age
Description: Panel B) TEM analysis of synaptic vesicles number. […] The arrows indicate the synaptic cleft. ***p<0.0001 vs WT+Saline; ###p<0.0001 vs MPS-IIIA+saline, One-way ANOVA analysis with Bonferroni's multiple comparison test.

[18] = systemic administration, mice; cited from earlier work
[19] = MPS-IIIA brain, daily s.c. injection for 4.5 months
[20] = CLR01-treated MPS-IIIA brain vs WT
[21] = MPS-IIIA brain lysates, CLR01 vs saline

O=P(O)(O)Oc1c2c(c(OP(=O)(O)O)c3c1C1CC3c3cc4c(cc31)C1CC4c3ccccc31)C1CC2c2cc3c(cc21)C1CC3c2ccccc21 [CLR01]
lysosome size/number [1]: did not affect lysosome size/number
LAMP1 compartment volume [2]: did not modify LAMP1 compartment volume
total number of lysosomes ([3]; CLR01-treated MPS-IIIA brain vs control MPS-IIIA mice): remained significantly higher than control MPS-IIIA mice
average lysosomal size (EM) [3, 19]: significant reduction in the average lysosomal size
number of abnormal-sized lysosomes (>800 nm) [3, 19]: decreased number of abnormal-sized lysosomes
protection against protein aggregation and neurodegeneration [4]: very effective in protecting against protein aggregation and neurodegeneration
neuroinflammatory markers GFAP and IBA1, immunofluorescence ([5]; 2 months of treatment, at 7 months of age): strong reduction of inflammation
neuro-inflammation by GFAP and Iba1 IHC, cortex and striatum ([5]; daily s.c. injection for 4.5 months, 9 months of age): reduction in both inflammatory markers; also recorded: strongly reduced neuro-inflammation
thioflavin-positive inclusions / amyloid deposition in brain ([6]; MPS-IIIA mice, daily s.c. injection for 4.5 months from 4.5 months of age, analysed at 9 months): reduction of amyloid deposition; also recorded: almost complete absence of thioflavin-positive inclusions
amyloid proteins by Thioflavin S staining ([6]; asymptomatic MPS-IIIA mice, 1 mg/kg/day s.c. osmotic pump, 2 months from 5 months of age, analysed at 7 months): complete disappearance of amyloid proteins
amyloid deposits by Thioflavin S staining in different brain regions ([6]; symptomatic MPS-IIIA mice, 1 mg/kg/day s.c. osmotic pump, 1 month from 6 months of age, analysed at 7 months): partial removal of amyloid deposits
lysosomal autophagic axis [7]: no significant change in lysosomal autophagic axis
LAMP1-positive immunostaining, cerebral cortex [8]: markedly reduced LAMP1-positive immunostaining
brain targeting / blood-brain barrier crossing [9]: cross the blood-brain barrier
UbK63 IHC signal, cerebral cortex [10]: significant signal reduction
LC3 staining [11]: a significant change in LC3 staining was observed
number of LC3 dots (both large and normal sized) compared to WT brain [12, 20]: remained significantly higher compared to WT brain
autophagic flux / autophagy block ([12]; MPS-IIIA brain, conclusion from LC3 dots): autophagic flux was re-activated; also recorded: able to relief autophagy block
large LC3 dots (>0.8 μm^2) ([12]; MPS-IIIA brain, cortical regions, daily s.c. injection for 4.5 months): significantly reduced large LC3 dots
inflammatory response by GFAP and Iba1 IHC [13]: did not elicit inflammatory response
memory deficit (freezing time, contextual fear conditioning) [14]: rescue of memory deficits; also recorded: fully rescued
build-up of amyloid components (α-Synuclein, PrP, Aβ1-42, Tau), proteinase K-resistant [15]: efficient inhibition of the build-up of several amyloid components
LC3-II levels compared to WT [16, 20]: remained significantly higher than WT
LC3-II protein level (Western blot, normalized to β-actin) [16, 21]: reduction; also recorded: damped down
p62 protein level (Western blot, normalized to β-actin) [16, 21]: reduction; also recorded: damped down
synaptic abnormalities (synaptic vesicles/synaptic cleft length ratio, TEM) [17]: able to rescue synaptic abnormalities
safety margin [18]: high safety margin
